Like-named read-outs stand apart in the source and are kept apart here.
Tests used:
[1] = for degradation: whole dried blood on DMPK-C cards and VAMS devices, 4 °C, 30 days
[2] = cited from earlier work
[3] = Comparison of plasma and whole blood hydroxyurea concentrations; format: in vivo, patients with SCA

## NC(=O)NO [hydroxyurea, Hydroxyurea]
[1]; DMPK-C cards, stored at 4 °C, 0.5 μg/mL, T = 7 days
  % of the target concentration measured in freshly prepared samples: 90.17 ± 0.44%
[1]; DMPK-C cards, stored at 4 °C, 0.5 μg/mL, T = 14 days
  % of the target concentration measured in freshly prepared samples: 81.75 ± 3.85%
[1]; DMPK-C cards, stored at 4 °C, 0.5 μg/mL, T = 30 days
  % of the target concentration measured in freshly prepared samples: 75.85 ± 4.08%
[1]; DMPK-C cards, stored at 4 °C, 60.0 μg/mL, T = 7 days
  % of the target concentration measured in freshly prepared samples: 65.37 ± 1.07%
[1]; DMPK-C cards, stored at 4 °C, 60.0 μg/mL, T = 14 days
  % of the target concentration measured in freshly prepared samples: 54.13 ± 3.39%
[1]; DMPK-C cards, stored at 4 °C, 60.0 μg/mL, T = 30 days
  % of the target concentration measured in freshly prepared samples: 48.58 ± 0.23%
[1]; DMPK-C cards, stored at −20 °C, 0.5 μg/mL, T = 7 days
  % of the target concentration measured in freshly prepared samples: 95.08 ± 0.01%
[1]; DMPK-C cards, stored at −20 °C, 0.5 μg/mL, T = 14 days
  % of the target concentration measured in freshly prepared samples: 90.56 ± 13.29%
[1]; DMPK-C cards, stored at −20 °C, 0.5 μg/mL, T = 30 days
  % of the target concentration measured in freshly prepared samples: 96.07 ± 5.12%
[1]; DMPK-C cards, stored at −20 °C, 60.0 μg/mL, T = 7 days
  % of the target concentration measured in freshly prepared samples: 90.88 ± 1.83%
[1]; DMPK-C cards, stored at −20 °C, 60.0 μg/mL, T = 14 days
  % of the target concentration measured in freshly prepared samples: 92.99 ± 2.03%
[1]; DMPK-C cards, stored at −20 °C, 60.0 μg/mL, T = 30 days
  % of the target concentration measured in freshly prepared samples: 93.07 ± 3.11%
[1]; DMPK-C cards, stored at −80 °C, 0.5 μg/mL, T = 7 days
  % of the target concentration measured in freshly prepared samples: 102.14 ± 0.59%
[1]; DMPK-C cards, stored at −80 °C, 0.5 μg/mL, T = 14 days
  % of the target concentration measured in freshly prepared samples: 97.41 ± 14.36%
[1]; DMPK-C cards, stored at −80 °C, 0.5 μg/mL, T = 30 days
  % of the target concentration measured in freshly prepared samples: 99.98 ± 3.81%
[1]; DMPK-C cards, stored at −80 °C, 60.0 μg/mL, T = 7 days
  % of the target concentration measured in freshly prepared samples: 93.69 ± 3.64%
[1]; DMPK-C cards, stored at −80 °C, 60.0 μg/mL, T = 14 days
  % of the target concentration measured in freshly prepared samples: 94.22 ± 2.34%
[1]; DMPK-C cards, stored at −80 °C, 60.0 μg/mL, T = 30 days
  % of the target concentration measured in freshly prepared samples: 100.45 ± 1.09%
[1]; VAMS devices, stored at 4 °C, 0.5 μg/mL, T = 7 days
  % of the target concentration measured in freshly prepared samples: 87.90 ± 10.32%
[1]; VAMS devices, stored at 4 °C, 0.5 μg/mL, T = 14 days
  % of the target concentration measured in freshly prepared samples: 91.86 ± 7.97%
[1]; VAMS devices, stored at 4 °C, 0.5 μg/mL, T = 30 days
  % of the target concentration measured in freshly prepared samples: 75.11 ± 0.56%
[1]; VAMS devices, stored at 4 °C, 60.0 μg/mL, T = 7 days
  % of the target concentration measured in freshly prepared samples: 64.19 ± 1.28%
[1]; VAMS devices, stored at 4 °C, 60.0 μg/mL, T = 14 days
  % of the target concentration measured in freshly prepared samples: 51.98 ± 0.46%
[1]; VAMS devices, stored at 4 °C, 60.0 μg/mL, T = 30 days
  % of the target concentration measured in freshly prepared samples: 46.14 ± 0.98%
[1]; VAMS devices, stored at −20 °C, 0.5 μg/mL, T = 7 days
  % of the target concentration measured in freshly prepared samples: 106.52 ± 12.11%
[1]; VAMS devices, stored at −20 °C, 0.5 μg/mL, T = 14 days
  % of the target concentration measured in freshly prepared samples: 103.15 ± 2.56%
[1]; VAMS devices, stored at −20 °C, 0.5 μg/mL, T = 30 days
  % of the target concentration measured in freshly prepared samples: 95.37 ± 6.01%
[1]; VAMS devices, stored at −20 °C, 60.0 μg/mL, T = 7 days
  % of the target concentration measured in freshly prepared samples: 83.69 ± 1.28%
[1]; VAMS devices, stored at −20 °C, 60.0 μg/mL, T = 14 days
  % of the target concentration measured in freshly prepared samples: 82.55 ± 1.65%
[1]; VAMS devices, stored at −20 °C, 60.0 μg/mL, T = 30 days
  % of the target concentration measured in freshly prepared samples: 82.48 ± 0.78%
[1]; VAMS devices, stored at −80 °C, 0.5 μg/mL, T = 7 days
  % of the target concentration measured in freshly prepared samples: 101.92 ± 10.34%
[1]; VAMS devices, stored at −80 °C, 0.5 μg/mL, T = 14 days
  % of the target concentration measured in freshly prepared samples: 103.58 ± 3.20%
[1]; VAMS devices, stored at −80 °C, 0.5 μg/mL, T = 30 days
  % of the target concentration measured in freshly prepared samples: 106.00 ± 8.10%
[1]; VAMS devices, stored at −80 °C, 60.0 μg/mL, T = 7 days
  % of the target concentration measured in freshly prepared samples: 86.62 ± 1.86%
[1]; VAMS devices, stored at −80 °C, 60.0 μg/mL, T = 14 days
  % of the target concentration measured in freshly prepared samples: 90.21 ± 0.94%
[1]; VAMS devices, stored at −80 °C, 60.0 μg/mL, T = 30 days
  % of the target concentration measured in freshly prepared samples: 93.53 ± 0.68%
[1]; 0.5 μg/mL
  degradation: 25%
[1]; 60 μg/mL
  degradation: 52%
[2]; children with SCA, measured by colorimetry
  typical peak serum or plasma hydroxyurea concentrations: 15 to 45 µg/mL
[2]
  elimination: primarily by renal clearance
  half-life: 1 to 3 h
[2]; most patients
  time drug is detectable after the daily dose: 6 to 8 h
[2]; oral, once daily
  time of peak serum concentrations after administration: 15 to 60 min
[2]; oral
  oral bioavailability: excellent
[3]; patients with SCA treated with hydroxyurea, venipuncture or finger-prick sampling
  hydroxyurea concentrations in plasma and whole blood compared: comparable
[3]; preliminary data using an HPLC method
  plasma and whole blood hydroxyurea concentrations compared: equivalent

Reference: PMC6598440 (Clinical chemistry, 2016)
